Several values for one entry are separate records, joined by “and”; a condition that tells them apart may be missing. Equal values may be shown once. Entries after “also recorded” stand apart in the source; their conditions may differ.
Tests used:
[1] = test system: patients with advanced solid tumors
[2] = test system: patients with advanced solid tumors; details: human, in vivo
[3] = test system: advanced solid tumors; test: Objective response by RECIST; format: in vivo, human
[4] = Plasma pharmacokinetics, LC/MS/MS, non-compartmental analysis
[5] = Flavopiridol protein binding in patient PK samples by micro-equilibrium dialysis; details: for concentration at 4 h: human, plasma, intravenous, Mean free flavopiridol plasma concentration at the end of the 4-hour infusion
[6] = test system: refractory solid tumors; details: 72-hr infusion schedule; cited from earlier work
[7] = test system: IL-6; test: Serum cytokine levels by cytokine bead array and ELISA; details: prior to and after flavopiridol infusion
[8] = test system: refractory chronic lymphocytic leukemia (CLL); details: cited from earlier work
[9] = All dose levels, 34 pts, first dose, mean ± SD
[10] = dose level 1, 1B (30+30 mg/m^2 bolus+infusion), 6 pts, first dose, mean ± SD
[11] = dose level 2, 2B (30+45 mg/m^2 bolus+infusion), 9 pts, first dose, mean ± SD
[12] = dose level 3 (30+60 mg/m^2 bolus+infusion), 9 pts, first dose, mean ± SD
[13] = dose level 4 (30+75 mg/m^2 bolus+infusion), 2 pts, first dose, mean ± SD
[14] = dose level −1, −1B (20+20 mg/m^2 bolus+infusion), 8 pts, first dose, mean ± SD

C[C@@H]1C[C@H]2[C@@H]3CCC4=CC(=O)C=C[C@]4(C)[C@@]3(F)[C@@H](O)C[C@]2(C)[C@@]1(O)C(=O)CO [dexamethasone]
Effect on frequency/incidence of CKRS ([1]; prophylactic dexamethasone 20 mg prior to bolus dose of flavopiridol): did not impact the frequency of CKRS; also recorded: did not impact the incidence of CKRS; also recorded: not associated with decreased occurrence of CKRS

CN1CC[C@H](c2c(O)cc(O)c3c(=O)cc(-c4ccccc4Cl)oc23)[C@H](O)C1 [flavopiridol]
Adverse event: Deep venous Thrombosis [2]: 1 | Adverse event: Diaphories [2]: 8 (24) N (%) | Adverse event: Dizziness [2]: 6 (35) N (%) | Adverse event: Dysphagia [2]: 1 | Adverse event: Dyspnea [2]: 5 | Adverse event: Elevated Alk Phos [2]: 2 | Adverse event: Febrile neutropenia [2]: 1 | Adverse event: Fever [2]: 4 (12) N (%) | Adverse event: Hyperbilrubinemia [2]: 4 (12) N (%) | Adverse event: Hypercalcemia [2]: 1 | Adverse event: Hypoxemia [2]: 2 | Adverse event: Nausea and/or vomiting [2]: 20 (59) N (%) | Adverse event: Somonolence [2]: 4 (12) N (%) | Adverse event: Tumor lysis syndrome [2]: 1 | Patients off study for grade 3 AEs [2]: 6 patients | Patients off study for grade 3 AST/ALT [2]: 2 n | Patients off study for grade 3 CKRS [2]: 4 n | Patients with CKRS [2]: 41% | Time to resolution of CKRS symptoms [2]: ≤ 6 h | Patients off study for progressive disease (PD) ([3]; 34 patients): 18 patients | Antitumor (objective) responses ([3]; 34 patients with advanced solid tumors, RECIST): No antitumor responses were observed; also recorded: No objective responses were observed | Patients with PD ([3]; after completing two cycles): seventeen | Mean end-of-infusion concentration (C0.5) ([4]; 20 mg/m^2 bolus dose): 0.91 ± 0.26 mM | Mean end-of-infusion concentration (C0.5) ([4]; 30 mg/m^2 bolus dose): 1.42 ± 0.66 mM | Dose proportionality of plasma concentrations (Cmax) and AUC ([4]; 5 doses from 40 to 105 mg/m^2): increased proportionally with dose; also recorded: proportional increases in Cmax and AUC | AUCO-∞ [4, 9]: 13.6 ± 7.0 hr x µM | CL [4, 9]: 12.7 ± 6.3 L/hr/m^2 | V2 (volume of distribution) [4, 9]: 241 ± 149 L/m^2 | AUCO-∞ [4, 10]: 13.2 ± 3.4 hr x µM | CL [4, 10]: 11.9 ± 3.0 L/hr/m^2 | V2 (volume of distribution) [4, 10]: 198 ± 82 L/m^2 | AUCO-∞ [4, 11]: 14.3 ± 6.8 hr x µM | CL [4, 11]: 15.3 ± 5.8 L/hr/m^2 | Cmax [4, 11]: 1790 ± 830 nM | V2 (volume of distribution) [4, 11]: 307 ± 155 L/m^2 | AUCO-∞ [4, 12]: 16.6 ± 8.6 hr x µM | CL [4, 12]: 16.5 ± 7.0 L/hr/m^2 | V2 (volume of distribution) [4, 12]: 309 ± 168 L/m^2 | AUCO-∞ [4, 13]: 20.8 hr x µM and 20.8 ± 5.6 hr x µM | CL [4, 13]: 13.1 ± 3.6 L/hr/m^2 | Cmax [4, 13]: 2710 ± 1080 nM | V2 (volume of distribution) [4, 13]: 260 ± 28 L/m^2 | AUCO-∞ [4, 14]: 7.9 hr x µM and 7.9 ± 4.2 hr x µM | CL [4, 14]: 6.1 ± 2.5 L/hr/m^2 | V2 (volume of distribution) [4, 14]: 117 ± 99 L/m^2 | AUC(0-inf) ([4]; human, plasma, intravenous, AUC0–∞, overall mean, all doses (40–105 mg/m^2), 34 patients): 13.6 ± 7 µM·h | half-life ([4]; human, plasma, intravenous, T1/2, All dose levels, 34 pts, first dose, mean ± SD): 852 ± 504 min | Tmax ([4]; human, plasma, intravenous, Tmax, All dose levels, 34 pts, first dose, mean ± SD): 2.02 ± 1.87 h | concentration at 4 h ([5]; patients who did not experience CKRS (N=20), cycle 1): 20 ± 9 nM | concentration at 4 h ([5]; patients with grade 1 or higher CKRS during cycle 1): 35 ± 26 nM | Mean free flavopiridol AUC ([5]; patients with CKRS during cycle 1): 318 ± 220 nM·h | Mean free flavopiridol AUC ([5]; patients without observed CKRS during cycle 1): 215 ± 103 nM·h | Major dose-limiting toxicity (DLT) [6]: Secretory diarrhea | IL-6 serum levels [7]: associated with flavopiridol infusion | Other serum cytokines (IL-2, IL-4, IL-10, TNF-α, IFNγ) [7]: No other cytokines were associated with flavopiridol infusion | Partial response rate ([8]; PK-directed schedule, single agent, CLL): 40% | Response rate ([8]; phase II study, refractory CLL patients): approximately 50% | MTD (bolus+infusion) ([8]; refractory CLL patients): 30+50 mg/m^2 | Maximum-tolerated dose (MTD), infusion ([8]; refractory CLL, 4-hr infusion): 50 mg/m^2 | Maximum-tolerated dose (MTD), bolus ([8]; refractory CLL, 30-minute loading dose): 30 mg/m^2 | Maximum-tolerated dose, bolus ([1]; 30-min bolus, weekly for 4 weeks on a 6-week cycle, patients with advanced solid tumors, dose level −1B): 20 mg/m^2 | Maximum-tolerated dose, infusion ([1]; infusion over 4 hours after bolus, weekly for 4 weeks on a 6-week cycle, patients with advanced solid tumors, dose level −1B): 20 mg/m^2 | Deaths attributed to CKRS ([1]; on study): One death on the study was attributed to CKRS | MTD (bolus+infusion) ([1]; patients with advanced solid tumors): 20+20 mg/m^2
